From patent US5843449A, “Proteins and novel peptides derived from autoantigen for use in immunotherapy of autoimmune diseases” (Akzo Nobel N.V., priority 1996, dated 1998)
Read-outs that look alike come from different tables or passages of the source. Residues, ends and D or L forms follow the SMILES beside them.

How the values were obtained:
[1] = target: T1, DR4Dw4 (DRB1*0401) HLA-DR molecules (Homo sapiens, UniProt P01903+P01911, A100K/A169T/F76Y/I96L/K127E/L162R/M171V/N62H/P40V/Q125Y/R42H/S133A/S149N/S66Y/V115G/V209L/W38E); experiment: HLA-DR peptide binding assay (competition with biotinylated marker peptide), DR4Dw4; details: pH = 5, 50 nM biotin-spacer-IHA(307-319)F marker peptide
T1 construct: endogenous in cells; host or cells: BSM, EBV-transformed B-cell line

DR4Dw14 HLA-DR molecules = experiment: HLA-DR peptide binding assay (competition with biotinylated marker peptide), DR4Dw14; parameters: species or system human; details: pH = 5, 50 nM biotin-spacer-IHA(307-319)F marker peptide
PBMC from RA patients = experiment: Proliferative responses of PBMC from RA patients (3H-thymidine); format: cell-based, human; details: 10% autologous serum
Description: Peripheral blood mononuclear cells (PBMC) from patients who were diagnosed as suffering from RA according to the American Rheumatism Association (ARA) criteria (Arnett et al., Arthritis Rheum. 31:315, 1988) were collected.
(§1) PBMC obtained from heparinized venous peripheral blood were isolated by standard centrifugation on a Ficoll-Paque gradient. […] Cultures were incubated in a total volume of 210 μl for 7 days at 37° C. in a humidified atmosphere of 5% CO2. Cultures were pulsed during the last 18 hours with 0.25 μCi^3 H-thymidine.

PBMC from healthy donors = experiment: Proliferative responses of PBMC from healthy donors (3H-thymidine); format: cell-based, human; details: 10% autologous serum
Description: PBMC's from healthy donors carrying the DR4Dw4 (DRB1*0401) or the DR1 specificity were collected as a control.
as §1

IC50 ([1]; DOT Blot, densitometer, read-out: ^R IC50, DR4Dw4, DOT Blot): 230 nM
IC50 ([1]; SDS-PAGE, visual inspection, read-out: ^R IC50, DR4Dw4, SDS-PAGE): 1000 nM
IC50 (DR4Dw14 HLA-DR molecules; DOT Blot, densitometer, read-out: ^R IC50, DR4Dw14, DOT Blot): > 10000 nM
IC50 (DR4Dw14 HLA-DR molecules; SDS-PAGE, visual inspection, read-out: ^R IC50, DR4Dw14, SDS-PAGE): ≤ 50000 nM
Compound: CC(C)[C@H](N)C(=O)NCC(=O)N[C@@H](Cc1ccc(O)cc1)C(=O)N[C@@H](CC(=O)O)C(=O)N[C@@H](CC(=O)O)C(=O)N[C@@H](CCC(N)=O)C(=O)N[C@@H](CCC(=O)O)C(=O)N[C@@H](CO)C(=O)N[C@H](C(=O)N[C@@H](CCCCN)C(=O)N[C@@H](CO)C(=O)N[C@@H](CCCCN)C(=O)N[C@H](C(=O)O)C(C)C)C(C)C [Peptide 3] (H-VGYDDQESVKSKV-OH)
Proliferative response, stimulation index (SI) (PBMC from RA patients; RA patient 191-03 (HR), disease state IV, peptide 10 μg/l): 1
Proliferative response, stimulation index (SI) (PBMC from RA patients; RA patient 191-03 (HR), disease state IV, peptide 100 μg/l): < 2
Proliferative response, stimulation index (SI) (PBMC from RA patients; RA patient 215-0 (HR), disease state III-IV, peptide 25 μg/l): 3
Proliferative response, stimulation index (SI) (PBMC from RA patients; RA patient 215-0 (HR), disease state III-IV, peptide 100 μg/l): 6
Proliferative response, stimulation index (SI) (PBMC from RA patients; RA patient 240-0 (HR), disease state II-III, peptide 25 μg/l): 2
Proliferative response, stimulation index (SI) (PBMC from RA patients; RA patient 240-0 (HR), disease state II-III, peptide 100 μg/l): 6
Proliferative response, stimulation index (SI) (PBMC from RA patients; RA patient 242-0 (HR), disease state I, peptide 25 μg/l): 9
Proliferative response, stimulation index (SI) (PBMC from RA patients; RA patient 242-0 (HR), disease state I, peptide 100 μg/l): 3
Proliferative response, stimulation index (SI) (PBMC from RA patients; RA patient 243-0 (R), disease state III, peptide 10 μg/l): 1
Proliferative response, stimulation index (SI) (PBMC from RA patients; RA patient 243-0 (R), disease state III, peptide 100 μg/l): 1
Proliferative response, stimulation index (SI) (PBMC from RA patients; RA patient 247-0 (R), disease state III, peptide 10 μg/l): 1
Proliferative response, stimulation index (SI) (PBMC from RA patients; RA patient 248-0 (R), disease state III, peptide 10 μg/l): 1
Proliferative response, stimulation index (SI) (PBMC from RA patients; RA patient 248-0 (R), disease state III, peptide 100 μg/l): 1
Proliferative response, stimulation index (SI) (PBMC from RA patients; RA patient 272-0 (HR), disease state III-IV, peptide 10 μg/l): < 1
Proliferative response, stimulation index (SI) (PBMC from RA patients; RA patient 272-0 (HR), disease state III-IV, peptide 100 μg/l): < 1
Proliferative response, stimulation index (SI) (PBMC from RA patients; RA patient 273-0 (HR), disease state IV, peptide 10 μg/l): 1
Proliferative response, stimulation index (SI) (PBMC from RA patients; RA patient 273-0 (HR), disease state IV, peptide 100 μg/l): 6
Proliferative response, stimulation index (SI) (PBMC from RA patients; RA patient 275-0 (HR), disease state III, peptide 10 μg/l): 1
Proliferative response, stimulation index (SI) (PBMC from RA patients; RA patient 275-0 (HR), disease state III, peptide 100 μg/l): 1
Proliferative response, stimulation index (SI) (PBMC from RA patients; RA patient 276-0 (HR), disease state IV, burnt out, peptide 10 μg/l): < 1
Proliferative response, stimulation index (SI) (PBMC from RA patients; RA patient 276-0 (HR), disease state IV, burnt out, peptide 100 μg/l): 1
Proliferative response, stimulation index (SI) (PBMC from RA patients; RA patient 280-0 (HR), disease state IV, burnt out, peptide 10 μg/l): 1
Proliferative response, stimulation index (SI) (PBMC from RA patients; RA patient 280-0 (HR), disease state IV, burnt out, peptide 100 μg/l): 1
Proliferative response, stimulation index (SI) (PBMC from healthy donors; healthy donor 155-03 (NR), peptide 10 μg/ml): < 2
Proliferative response, stimulation index (SI) (PBMC from healthy donors; healthy donor 155-03 (NR), peptide 100 μg/ml): 1
Proliferative response, stimulation index (SI) (PBMC from healthy donors; healthy donor 156-03 (NR), peptide 10 μg/ml): 1
Proliferative response, stimulation index (SI) (PBMC from healthy donors; healthy donor 156-03 (NR), peptide 100 μg/ml): < 1
Proliferative response, stimulation index (SI) (PBMC from healthy donors; healthy donor 157-03 (NR), peptide 10 μg/ml): 1
Proliferative response, stimulation index (SI) (PBMC from healthy donors; healthy donor 157-03 (NR), peptide 100 μg/ml): 1
Proliferative response, stimulation index (SI) (PBMC from healthy donors; healthy donor 157-04 (R), peptide 10 μg/ml): 1
Proliferative response, stimulation index (SI) (PBMC from healthy donors; healthy donor 168-03 (NR), peptide 10 μg/ml): 1
Proliferative response, stimulation index (SI) (PBMC from healthy donors; healthy donor 168-03 (NR), peptide 100 μg/ml): 1
Proliferative response, stimulation index (SI) (PBMC from healthy donors; healthy donor 168.02 (NR), peptide 10 μg/ml): < 2
Proliferative response, stimulation index (SI) (PBMC from healthy donors; healthy donor 168.02 (NR), peptide 100 μg/ml): < 2
Proliferative response, stimulation index (SI) (PBMC from healthy donors; healthy donor 169-02 (NR), peptide 10 μg/ml): 1
Proliferative response, stimulation index (SI) (PBMC from healthy donors; healthy donor 169-02 (NR), peptide 100 μg/ml): 1
Proliferative response, stimulation index (SI) (PBMC from healthy donors; healthy donor 230-01 (NR), peptide 10 μg/ml): 1
Proliferative response, stimulation index (SI) (PBMC from healthy donors; healthy donor 230-01 (NR), peptide 100 μg/ml): 1
Proliferative response, stimulation index (SI) (PBMC from healthy donors; healthy donor 235-0 (NR), peptide 10 μg/ml): 1
Proliferative response, stimulation index (SI) (PBMC from healthy donors; healthy donor 235-0 (NR), peptide 100 μg/ml): < 2
Proliferative response, stimulation index (SI) (PBMC from healthy donors; healthy donor 235-01 (NR), peptide 10 μg/ml): < 1
Proliferative response, stimulation index (SI) (PBMC from healthy donors; healthy donor 235-01 (NR), peptide 100 μg/ml): < 2
Proliferative response, stimulation index (SI) (PBMC from healthy donors; healthy donor 236-01 (NR), peptide 10 μg/ml): 1
Proliferative response, stimulation index (SI) (PBMC from healthy donors; healthy donor 236-01 (NR), peptide 100 μg/ml): < 1
Proliferative response, stimulation index (SI) (PBMC from healthy donors; healthy donor 237-0 (NR), peptide 10 μg/ml): < 1
Proliferative response, stimulation index (SI) (PBMC from healthy donors; healthy donor 237-0 (NR), peptide 100 μg/ml): 1
Proliferative response, stimulation index (SI) (PBMC from healthy donors; healthy donor 237-01 (NR), peptide 10 μg/ml): 1
Proliferative response, stimulation index (SI) (PBMC from healthy donors; healthy donor 237-01 (NR), peptide 100 μg/ml): 1
Proliferative response, stimulation index (SI) (PBMC from healthy donors; healthy donor 238-01 (NR), first line so labelled, peptide 10 μg/ml): 1
Proliferative response, stimulation index (SI) (PBMC from healthy donors; healthy donor 238-01 (NR), first line so labelled, peptide 100 μg/ml): 1
Proliferative response, stimulation index (SI) (PBMC from healthy donors; healthy donor 238-01 (NR), second line so labelled, peptide 10 μg/ml): 1
Proliferative response, stimulation index (SI) (PBMC from healthy donors; healthy donor 238-01 (NR), second line so labelled, peptide 100 μg/ml): 1
Proliferative response, stimulation index (SI) (PBMC from healthy donors; healthy donor 241-0 (NR), peptide 10 μg/ml): < 1
Proliferative response, stimulation index (SI) (PBMC from healthy donors; healthy donor 241-0 (NR), peptide 100 μg/ml): < 1
Proliferative response, stimulation index (SI) (PBMC from healthy donors; healthy donor 241-01 (R), peptide 10 μg/ml): < 1
Proliferative response, stimulation index (SI) (PBMC from healthy donors; healthy donor 241-01 (R), peptide 100 μg/ml): 1
